Data from patent US20220089592A1, “IMIDAZO[1,2-A]PYRIDINYL DERIVATIVES AS IRAK4 INHIBITORS” (priority 2019, published 2022).
Where a name gives a salt, the structure may show the parent alone.

Biological target: T1, IRAK4 (Homo sapiens, UniProt Q9NWZ3)
T1 sequence (Q9NWZ3 1-460): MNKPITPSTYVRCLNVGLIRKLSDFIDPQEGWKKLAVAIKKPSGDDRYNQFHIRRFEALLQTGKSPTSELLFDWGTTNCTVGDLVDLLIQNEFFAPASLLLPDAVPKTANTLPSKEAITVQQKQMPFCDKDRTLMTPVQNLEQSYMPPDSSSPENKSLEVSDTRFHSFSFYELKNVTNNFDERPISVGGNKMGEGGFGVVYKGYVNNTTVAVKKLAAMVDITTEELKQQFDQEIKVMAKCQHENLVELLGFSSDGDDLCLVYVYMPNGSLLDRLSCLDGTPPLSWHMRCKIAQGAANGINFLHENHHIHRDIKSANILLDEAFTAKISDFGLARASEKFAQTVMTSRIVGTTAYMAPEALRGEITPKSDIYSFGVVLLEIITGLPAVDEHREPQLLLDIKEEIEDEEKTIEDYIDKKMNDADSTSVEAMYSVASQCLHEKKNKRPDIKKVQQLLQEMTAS
Experiment: 2-hour 1 mM ATP IRAK4 Biochemical assay (as above, but with 100 pM IRAK4 and 1 mM ATP)
Settings: IRAK4 MSD BIOCHEMICAL (1 mM ATP) IC50 (μM), 100 pM IRAK4, 2 hours
Outline: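 MSD electrochemiluminescence read-out: biotinylated peptide product bound to streptavidin plates, probed with anti-P-Thr rabbit antibody and Sulfo-Tag goat anti-rabbit. Kinase reaction used 1 mM ATP and 100 pM IRAK4 over 2 hours before EDTA quench.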

Row | SMILES | IC50 [µM]
1 | COCCn1ccc(C(=O)Nc2cn3cc(C4CCOCC4)nc3cc2OC(C)C)n1 [Example 383, N-(7-isopropoxy-2-(tetrahydro-2H-pyran-4-yl)imidazo[1,2-a]pyridin-6-yl)-1-(2-methoxyethyl)-1H-pyrazole-3-carboxamide 2,2,2-trifluoroacetate] | 0.014
2 | CCC(C)Oc1c(NC(=O)c2cccnc2OC)cn2cc(C34COC(C)(C3)C4)nc2c1F (single isomer, unassigned) [Example 328, N-(7-(sec-butoxy)-8-fluoro-2-(1-methyl-2-oxabicyclo[2.1.1]hexan-4-yl)imidazo[1,2-a]pyridin-6-yl)-2-methoxynicotinamide] | 0.004
3 | COc1c(NC(=O)c2cccc(C(F)F)n2)cn2cc(C34COC(C)(C3)C4)nc2c1C [Example 295, 6-(difluoromethyl)-N-(7-methoxy-8-methyl-2-(1-methyl-2-oxabicyclo[2.1.1]hexan-4-yl)imidazo[1,2-a]pyridin-6-yl)picolinamide] | 0.004
4 | CC12CC(c3cn4cc(NC(=O)c5coc(C6CC6)n5)nc(OC5CCC5)c4n3)(CO1)C2 [Example 340, N-(8-cyclobutoxy-2-(1-methyl-2-oxabicyclo[2.1.1]hexan-4-yl)imidazo[1,2-a]pyrazin-6-yl)-2-cyclopropyloxazole-4-carboxamide] | 0.006
5 | CC(C)Oc1nc2nc(C3C4COCC43)cn2cc1NC(=O)c1ccn(C)n1 (centres unmarked) [Example 500, N-(2-(3-oxabicyclo[3.1.0]hexan-6-yl)-7-isopropoxyimidazo[1,2-a]pyrimidin-6-yl)-1-methyl-1H-pyrazole-3-carboxamide Hydrochloride] | 0.005
6 | COc1nc(NC(=O)c2cccc3c2OCC3)cn2cc(C34COC(C)(C3)C4)nc12 [Example 445, N-(8-methoxy-2-(1-methyl-2-oxabicyclo[2.1.1]hexan-4-yl)imidazo[1,2-a]pyrazin-6-yl)-2,3-dihydrobenzofuran-7-carboxamide 2,2,2-trifluoroacetate] | 0.012
7 | CC(C)Oc1cc2nc(C(C)(C)C(=O)O)cn2cc1NC(=O)c1cccc(C(F)F)n1 [Example 262, 2-(6-(6-(difluoromethyl)picolinamido)-7-isopropoxyimidazo[1,2-a]pyridin-2-yl)-2-methylpropanoic acid] | 0.006
8 | CCOc1cc2nc(CC3CCS(=O)(=O)C3)cn2cc1NC(=O)c1cccc(C(F)F)n1 (centres unmarked) [Example 257, 6-(difluoromethyl)-N-(2-((1,1-dioxidotetrahydrothiophen-3-yl)methyl)-7-ethoxyimidazo[1,2-a]pyridin-6-yl)picolinamide] | 0.001
9 | CC(C)Oc1cc2nc(C34CC(F)(C3)C4)cn2cc1NC(=O)c1cccc(C(F)(F)F)n1 [Example 539, N-(2-(3-fluorobicyclo[1.1.1]pentan-1-yl)-7-isopropoxyimidazo[1,2-a]pyridin-6-yl)-6-(trifluoromethyl)picolinamide 2,2,2-trifluoroacetate] | 0.002
10 | COc1nc2nc(C3CCCOC3)cn2cc1NC(=O)c1cccc(C(F)F)n1 (centres unmarked) [Example 569, 6-(difluoromethyl)-N-(7-methoxy-2-(tetrahydro-2H-pyran-3-yl)imidazo[1,2-a]pyrimidin-6-yl)picolinamide] | 0.004
11 | CC(C)Oc1cc2nc(C34COC(C)(C3)C4)c(Cl)n2cc1NC(=O)c1cccc(C(F)F)n1 [Example 575, N-(3-chloro-7-isopropoxy-2-(1-methyl-2-oxabicyclo[2.1.1]hexan-4-yl)imidazo[1,2-a]pyridin-6-yl)-6-(difluoromethyl)picolinamide 2,2,2-trifluoroacetate] | 0.012
12 | COc1cccc(C(=O)Nc2cn3cc(C4CCOCC4)nc3cc2C(F)F)n1 [Example 389, N-(7-(difluoromethyl)-2-(tetrahydro-2H-pyran-4-yl)imidazo[1,2-a]pyridin-6-yl)-6-methoxypicolinamide 2,2,2-trifluoroacetate] | 0.016
13 | COc1nc(NC(=O)c2cccc(C(F)F)n2)cn2cc(C3CCOC(C)(C)C3)nc12 (centres unmarked) [Example 560, 6-(difluoromethyl)-N-(2-(2,2-dimethyltetrahydro-2H-pyran-4-yl)-8-methoxyimidazo[1,2-a]pyrazin-6-yl)picolinamide 2,2,2-trifluoroacetate] | 0.002
14 | COc1ccccc1C(=O)Nc1cn2cc(C34COC(C)(C3)C4)nc2c(OC)n1 [Example 443, 2-methoxy-N-(8-methoxy-2-(1-methyl-2-oxabicyclo[2.1.1]hexan-4-yl)imidazo[1,2-a]pyrazin-6-yl)benzamide] | 0.023
15 | Cc1nc(C(=O)Nc2cn3cc(C45CCC(C)(C4)OC5)nc3c(OC3CCC3)n2)co1 (centres unmarked) [Example 486, N-(8-cyclobutoxy-2-(1-methyl-2-oxabicyclo[2.2.1]heptan-4-yl)imidazo[1,2-a]pyrazin-6-yl)-2-methyloxazole-4-carboxamide 2,2,2-trifluoroacetate] | 0.016
16 | CC(C)Oc1cc(NC(=O)c2cccc(C(F)F)n2)cn2cc(C3CCOCC3)nc12 [Example 418, 6-(difluoromethyl)-N-(8-isopropoxy-2-(tetrahydro-2H-pyran-4-yl)imidazo[1,2-a]pyridin-6-yl)picolinamide 2,2,2-trifluoroacetate] | 0.021
17 | COc1ncccc1C(=O)Nc1cn2cc(C34COC(C)(C3)C4)nc2cc1OC(C)C(F)(F)F (racemic) [Example 317, 2-methoxy-N-(2-(1-methyl-2-oxabicyclo[2.1.1]hexan-4-yl)-7-((1,1,1-trifluoropropan-2-yl)oxy)imidazo[1,2-a]pyridin-6-yl)nicotinamide] | 0.001
18 | CCCOc1nc(NC(=O)c2cccc(C(F)F)n2)cn2cc(C34COC(C)(C3)C4)nc12 [Example 574, 6-(difluoromethyl)-N-(2-(1-methyl-2-oxabicyclo[2.1.1]hexan-4-yl)-8-propoxyimidazo[1,2-a]pyrazin-6-yl)picolinamide] | 0.002
19 | CC(C)Oc1c(NC(=O)c2ccn(C)n2)cn2cc(C34COC(C)(C3)C4)nc2c1F [Example 432, N-(8-fluoro-7-isopropoxy-2-(1-methyl-2-oxabicyclo[2.1.1]hexan-4-yl)imidazo[1,2-a]pyridin-6-yl)-1-methyl-1H-pyrazole-3-carboxamide 2,2,2-trifluoroacetate] | 0.005
20 | COc1nc(NC(=O)c2cccc3c2OCC3(F)F)cn2cc(C3CCOCC3)nc12 [Example 454, 3,3-difluoro-N-(8-methoxy-2-(tetrahydro-2H-pyran-4-yl)imidazo[1,2-a]pyrazin-6-yl)-2,3-dihydrobenzofuran-7-carboxamide] | 0.014
21 | CCOc1cc2nc(CCCOC)cn2cc1NC(=O)c1cccc(C(F)F)n1 [Example 12, 6-(difluoromethyl)-N-(7-ethoxy-2-(3-methoxypropyl)imidazo[1,2-a]pyridin-6-yl)picolinamide] | 0.001
22 | CC(C)Oc1cc2nc(C3CCOCC3)c(Cl)n2cc1NC(=O)c1cccc(C(F)F)n1 [Example 353, N-(3-chloro-7-isopropoxy-2-(tetrahydro-2H-pyran-4-yl)imidazo[1,2-a]pyridin-6-yl)-6-(difluoromethyl)picolinamide] | 0.011
23 | CCOc1cc(NC(=O)c2cccc(C)n2)cn2cc([C@H]3[C@@H]4COC[C@@H]43)nc12 [Example 417, N-(2-((1R,5S,6s)-3-oxabicyclo[3.1.0]hexan-6-yl)-8-ethoxyimidazo[1,2-a]pyridin-6-yl)-6-methylpicolinamide] | 0.022
